Results taken from patent US20090023784A1, “USE OF DEFERIPRONE AND METHODS TO TREAT AND/OR PREVENT FRIEDREICH ATAXIA RESULTING FROM INTRACELLULAR MISHANDLING OF IRON” (priority 2006, published 2009).

System: iron accumulation in dentate nuclei
Assay: MRI R2* measurement of brain iron in the pilot trial
Type: in vivo, human
Settings: 20-30 mg/kg/day oral, patients before 17.4±1.6, controls 13.7±0.6
Description: Multiple-gradient echo sequence was used to monitor the iron concentrations in the brain (Waldvogel et al. Increased iron in the dentate nucleus of patients with Friedrich's ataxia. Ann Neurol 1999; 46:123-5), using a 1.5T Signa unit (GE Medical Systems, Milwaukee, Wisc., USA) using phase array head coil. Deep gray structures were localized by using a T2*-weighted echo-planar sequence (TR 3000 ms, TE 60 ms, eight averages, field of view: 24 cm, 256×224 matrix and slice thickness : 5 mm, 24 slices/1.1 min). A voxel englobing the left and right nuclei was positioned on the largest section of dentate nuclei (dimensions 6×3×2 cm^3). Data acquisition allowing iron monitoring was performed by using a single-slice multi-gradient-echo sequence (TR: 400 ms, flip angle: 50° to maximize gray matter signal, acquisition time: 3 minutes).
The determination of R2* was performed by using data of the multi-gradient echo sequence. In each pixel, the signals Si of the ten images obtained at echo times TEi (−i=1.10) were used to calculate the parameter R2* by adjustment of the signal decay according to the equation Si=So.exp (−R2*.TEi). A parametric image of local R2* values was calculated with the same spatial resolution than the native images. The mean value of R2* was calculated in various regions of interest, all determined by the same experimental radiologist. […]

`Cc1c(O)c(=O)ccn1C` [Deferiprone, 3-hydroxy-1,2-dimethylpyridin-4-one] was tested, and the “relaxation rate R2* in dentate nuclei” value (after one month) was 16.6 ± 1.3 s⁻¹ and the “relaxation rate R2* in dentate nuclei” value (after two months) was 15.9 ± 0.6 s⁻¹.
